Data on one compound can be found in US4801614A, “Process for using endogenous enkephalins and endorphins to inhibit growth of tumerous cells” (TNI Pharmaceuticals, Inc., priority 1987, dated 1989).

SMILES strings stand for the structures. Where two headings read alike, the source gives them in different places.

The subject of this test is L1210 tumor cells. As to conditions: 30 mg/Kg s.c. methionine-enkephalin where combined. The source says:
Groups of BDF1 female mouse strain (16-20 gms) were inoculated with L1210 (leukemia) tumor cells (1×10^4, 1×10^3, or 1×10^2 cells) and observed for survival. The L1210 line of tumor cells was maintained in DBA/2 host mice. Ascitic fluid from the DBA/2 mice was used to inoculate the BDF1 mice transferred in RPMI 1640 buffer at pH 8-9).
In order to test for any synergistic effect of using an endogenous enkephalin with a known chemo-therapeutic agent, a study involving the inoculation of groups of mice with massive doses (1×10^6 ) of L1210 tumor cells was performed in a manner analogous to the previous examples transferred in RPMI 1640 at pH 7.

On to `N.N.[Cl][Pt][Cl]` [Cis-platin, cis-platin], for which the cumulative dead is reported as 3/20 (2 mg/Kg cis-platin, day 9); 13/20 (2 mg/Kg cis-platin, day 10); 14/20 (2 mg/Kg cis-platin, day 11); 15/20 (2 mg/Kg cis-platin, day 12); 17/20 (2 mg/Kg cis-platin, day 13); 19/20 (2 mg/Kg cis-platin, day 14). Further, the cumulative dead is on record as 10/20 (4 mg/Kg cis-platin, day 11); 15/20 (4 mg/Kg cis-platin, day 12); 19/20 (4 mg/Kg cis-platin, day 13); 20/20 (4 mg/Kg cis-platin, day 15); 2/20 (single dose 8 mg/Kg cis-platin, day 9); 4/20 (single dose 8 mg/Kg cis-platin, day 12). The cumulative dead was 7/20 (single dose 8 mg/Kg cis-platin, day 13); 12/20 (single dose 8 mg/Kg cis-platin, day 14); 16/20 (single dose 8 mg/Kg cis-platin, day 15); 18/20 (single dose 8 mg/Kg cis-platin, day 16); 19/20 (single dose 8 mg/Kg cis-platin, day 18); 20/20 (single dose 8 mg/Kg cis-platin, day 20). The “Median Day of Death (ED50)” value is 10 days (2 mg/Kg cis-platin, saline control 9 Days); 10 days (4 mg/Kg cis-platin, saline control 8 Days); 12 days (8 mg/Kg cis-platin, saline control 8 days).
